Seven compounds from patent publication US20250196055A1, “PROCESS FOR CAPTURING CO2 FROM A MOBILE SOURCE USING AN AMINO ACID SOLVENT” (SAUDI ARABIAN OIL COMPANY, priority 2021, published 2025) can be followed below.

Some results are limits rather than exact numbers.

Data set [1] in a line: Solubility testing in gas bubbler/sparger with continuous 9 mol % CO2 in N2. Conditions: 9 mol % CO2, ambient conditions.
The nature of data set [2]: Continuous test plant: membrane contactor CO2 absorption from exhaust and solvent regeneration in stripper. Conditions: for solids at ambient conditions (in words): atmospheric pressure and room temperature.
A short description of data set [3]: Preliminary solubility testing of CO2-loaded amino/amino-sulfonic acid solutions (precipitation temperature). Type of data set: physicochemical. Conditions: for solubility of CO2-loaded solution (in words): CO2 loaded 0.35-0.45 mol CO2/mol alk., lowest limit of apparatus −10° C.; for Precipitation Temperature: ambient pressure, test range −10° C. to 40° C. As to the method: Preliminary solubility testing was carried out with various amino and amino-sulfonic acids and blends thereof to determine the propensity for solids precipitation. These blends were loaded with CO2 under representative process conditions: a CO2 loading from 0.35 to 0.45 mol CO2/mol alkalinity at ambient pressure and a temperature from −10° C. to 40° C. CO2 loading was achieved by addition of potassium bicarbonate instead of some potassium hydroxide as the neutralizing agent. The loading (in mol CO2 per mol alkalinity) was determined from the following equation: […]

`CC(C)(N)C(=O)O` [1 m AlBA, Amino isobutyric acid]: the “precipitation when 9 mol % CO2 continuously injected (in words)” value in data set [1] was “did not precipitate”.

In the case of `NCCCS(=O)(=O)O` [3 m HTAU, homotaurine], the “precipitation when 9 mol % CO2 continuously injected (in words)” value in data set [1] is listed as “did not precipitate”.

In the case of `CN[C@@H](C)C(=O)O` [3 m NMA, n-methyl-alanine], in data set [1], the “precipitation when 9 mol % CO2 continuously injected (in words)” value was “did not precipitate”.

Take `NCCS(=O)(=O)O` [3 m TAU, taurine]: the “Solid Observed” value in data set [2] (210 kPa stripper pressure, 120° C. stripper temperature, 3.75 kg/min liquid, 9 mol % CO2, 25 SCFM) is given as “YES”. Further, the “solids at ambient conditions (in words)” value in data set [2] (listed as 3 m potassium taurinate) was “solids are formed”. The “solubility of CO2-loaded solution (in words)” value in data set [3] is “soluble at process temperatures from 40 °C to 120° C., but potentially not soluble at room temperature”.

`NCCS(=O)(=O)O` [5 m TAU, taurine]: the “solids at ambient conditions (in words)” value in data set [2] (listed as 5 m taurine) was “solids are observed”.

Take `NCCC(=O)O` [5 m b-ALA, Beta-alanine]: the “precipitation when 9 mol % CO2 continuously injected (in words)” value in data set [1] was “did not precipitate”.

On to `NCCCS(=O)(=O)O` [5 m homotaurine, homotaurine], for which, in data set [3], the “solubility of CO2-loaded solution (in words)” value is recorded as “highly soluble with no precipitation”. The “Precipitation Temperature” value in data set [3] (Loading 0.35 mol CO2/mol alk.), in data set [3] (Loading 0.40 mol CO2/mol alk.) and in data set [3] (Loading 0.45 mol CO2/mol alk.) was under −10 °C throughout.
